This assay addresses Des1 (Homo sapiens (Human), UniProt O15121). The experiment in a line: Jurkat T cell measurement of conversion of dihydroceramide to ceramide. Conditions: for inhibition at 10 µM: read-out: Des1 % Inhib (10 μM); for IC50: read-out: Des1 IC50; for inhibition at 1 µM: read-out: Des1 % Inhib (1 μM); for inhibition at 0.5 µM: read-out: Des1 % Inhib (0.5 μM). The class given is cell-based. As for the experimental part: Jurkat T Cell Measurement of Conversion of Dihydroceramide to Ceramide
Jurkat clone E6-1 cells were grown and then seeded at 10^6 cells/mL in a 96-well plate (400 μL in each well. The cells were administered 100 μL of cell culture media containing 50-μM NBD-C6-dihydroceramide (Des1 substrate), affording a final concentration of substrate of 10 μM. The cells were incubated with substrate at 4° C. for 30 minutes. Following the incubation at 4° C., the cell suspension was centrifuged at 1200 rpm for 3 minutes, and the cell pellet is resuspended in 400 μL of fresh media containing various concentrations of either fenretinide (known Des1 inhibitor control compound) or test article. The final concentrations of control compound and test compounds were tested in a range from 0-10 μM. The cells and compounds were incubated at 37° C. for 3 hours. Following the 3-hour incubation, the plate was centrifuged at 2500 g for 3 minutes at 4° C., followed by collection and transfer of 200 μL of the supernatant to a new 96-well plate with 300 μL of methanol an containing appropriate internal standards for liquid chromatography/tandem mass spectroscopy (LC/MS/MS) analysis (internal standard: 500 nM labetalol and 100 nM alprazolam). The samples were vortexed for 2 minutes followed by centrifugation at 3,220 g for 20 minutes. Following centrifugation, 200 μL of the supernatant was transferred to a new 96-well plate for LC-MS/MS analysis to determine the amount of NBD-C6-ceramide (Des1 product) produced. The assay was typically performed in duplicate. A reduction of at least 30% compared to vehicle control (0 μM test article) is indicative of an active compound, and a reduction of 75% compared to vehicle control is preferred.

Where [1] appears, read: 10 μM compound, Jurkat clone E6-1 cells, NBD-C6-dihydroceramide substrate.
The mark [2] stands for this setting: Jurkat clone E6-1 cells, NBD-C6-dihydroceramide substrate.
The mark [3] stands for this setting: 1 μM compound, Jurkat clone E6-1 cells.
Where [4] appears, read: 0.5 μM compound, Jurkat clone E6-1 cells.

Where “and” joins values, the source holds several entries; their conditions need not be identical. Equal entries are not always repeated. Where two headings read alike, the source gives them in different places. Bounds are passed on as bounds.

Chain of Des1 (O15121 whole entry): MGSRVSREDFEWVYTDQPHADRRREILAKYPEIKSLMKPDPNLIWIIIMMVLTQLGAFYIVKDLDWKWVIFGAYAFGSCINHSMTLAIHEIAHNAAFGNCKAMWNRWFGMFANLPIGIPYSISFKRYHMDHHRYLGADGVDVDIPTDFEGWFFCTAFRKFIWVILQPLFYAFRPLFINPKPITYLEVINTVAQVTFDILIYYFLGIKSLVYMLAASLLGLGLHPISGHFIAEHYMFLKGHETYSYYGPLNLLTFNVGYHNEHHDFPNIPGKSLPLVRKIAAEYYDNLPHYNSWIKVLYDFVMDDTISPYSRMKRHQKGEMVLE

In general, IC50 refers to the concentration that inhibits the measured activity by half. Consider `O=C(Nc1ccc(O)cc1)[C@@H]1C[C@H]1c1ccccc1` (relative stereo) [Example 6, (trans)-N-(4-hydroxyphenyl)-2-phenyl-cyclopropane-carboxamide], for which, under setting [1], the inhibition at 10 µM was 76%. Also, the IC50 under setting [2] was 0.59 µM.

On to `O=C(Nc1ccc(O)cc1)c1ccc2ccccc2c1` [Example 2, N-(4-hydroxy-phenyl)-2-naphthamide], for which the inhibition at 10 µM under setting [1] worked out at 78%. Also, under setting [2], the IC50 is 0.84 µM. The matching figures for `C/C(=C\C(=O)Nc1ccc(O)cc1)c1ccccc1` [Example 3, (E)-N-(4-hydroxy-phenyl)-3-phenylbut-2-enamide]: 49% and 4.46 µM. The matching figures for `O=C(/C=C/c1ccccc1)Nc1ccc(O)cc1` [Example 4, N-(4-hydroxy-phenyl)-cinnamide]: 85% and 0.44 µM. The matching figures for `O=C(Nc1ccc(O)cc1)c1ccc(-c2ccccc2)cc1` [Example 5, N-(4-hydroxy-phcnyl)-[1,1′-biphenyl]-4-carboxamide]: 88% and 0.05 µM.

Regarding `O=C(Nc1ccc(O)cn1)c1ccc2ccccc2c1` [Example 7, N-(5-hydroxy-pyridin-2-yl)-2-naphth-amide], the inhibition at 1 µM under setting [3] was 79.8%. Also, under setting [2], the IC50 was determined as 0.18 µM. The matching figures for `O=C(/C=C/c1ccccc1)Nc1ccc(O)cn1` [Example 8, N-(5-hydroxy-pyridin-2-yl)-cinnamide]: 85.9% and 0.06 µM. On to `O=C(Nc1ccc(O)cn1)c1ccc(-c2ccccc2)cc1` [Example 9, N-(5-hydroxy-pyridin-2-yl)-(1,1′-biphenyl)-4-carboxamide], for which the inhibition at 1 µM under setting [3] is 93.3%. Also, under setting [2], the IC50 was 0.01 µM and 0.026 µM. Regarding `O=C(Nc1ccc(O)cn1)[C@@H]1C[C@H]1c1ccccc1` [Example 10, (trans)-N-(5-hydroxy-pyridin-2-yl)-2-phenyl-cyclopropane-carboxamide], the inhibition at 1 µM under setting [3] was 67.2%. Further, the IC50 under setting [2] amounted to 0.23 µM. Take `CC(C)=CC(=O)Nc1ccc(O)cc1` [Example 11, N-(4-hydroxy-phenyl)-3-methyl-2-butenamide]: the inhibition at 10 µM under setting [1] was found to be 20%. Besides, under setting [2], the IC50 was more than 10 µM. The matching figures for `O=C(Nc1ccc(O)cc1)c1cccc2ccccc12` [Example 13, N-(4-hydroxy-phenyl)-1-napthamide]: 38% and 8.2 µM. The matching figures for `O=C(Nc1ccc(O)cc1)c1ccc2[nH]ncc2c1` [Example 14, N-(4-hydroxy-phenyl)-1H-indazole-5-carboxamide]: 14.8% and more than 10 µM.

On to `O=C(Nc1ccc(O)cc1)c1ccc(C2CCCCC2)cc1` [Example 15, N-(4-hydroxy-phenyl)-4-cyclohexyl-benzamide], for which the IC50 under setting [2] is 0.09 µM. The inhibition at 10 µM (Jurkat) was 87%.

Regarding `O=C(Nc1ccc(O)cc1)c1ccc(-c2ccc(O)cc2)cc1` [Example 16, N-(4-hydroxy-phenyl)-4′-hydroxy-biphenyl-4-carboxamide], the inhibition at 10 µM under setting [1] came to 54%. Regarding `O=C(Nc1ccc(O)cn1)c1cccc2ccccc12` [Example 19, N-(5-hydroxy-pyridin-2-yl)-1-napthamide], under setting [3], the inhibition at 1 µM is 31%. Regarding `O=C(Nc1ccc(O)cn1)c1ccc(C2CCCCC2)cc1` [Example 20, N-(5-hydroxy-pyridin-2-yl)-4-cyclohexyl-benzamide], the IC50 under setting [2] was 0.004 µM. Besides, for the setting “Jurkat”, the inhibition at 1 µM came out at 95.9%. Take `O=C(Nc1ccc(O)cn1)c1ccc(-c2ccc(O)cc2)cc1` [Example 21, N-(5-hydroxy-pyridin-2-yl)-4′-hydroxy-biphenyl-4-carboxamide]: the inhibition at 0.5 µM under setting [4] came out at 62.8%. On to `COc1ccc(-c2ccc(C(=O)Nc3ccc(O)cn3)cc2)cc1` [Example 22, N-(5-hydroxy-pyridin-2-yl)-4′-methoxy-biphenyl-4-carboxamide], for which the inhibition at 1 µM under setting [3] amounted to 95.4%. Also, the IC50 under setting [2] amounted to 0.014 µM.

As for `N#Cc1ccc(-c2ccc(C(=O)Nc3ccc(O)cn3)cc2)cc1` [Example 23, N-(5-hydroxy-pyridin-2-yl)-4′-cyano-biphenyl-4-carboxamide], the inhibition at 1 µM under setting [3] came to 96.3%. Also, the IC50 under setting [2] worked out at 0.005 µM. The matching figures for `O=C(Nc1ccc(O)cn1)c1ccc(-c2ccc(Cl)cc2)cc1` [Example 24, N-(5-hydroxy-pyridin-2-yl)-4′-chloro-biphenyl-4-carboxamide]: 96.1% and 0.003 µM. As for `O=C(Nc1ccc(O)cn1)c1ccccc1` [Example 25, N-(5-hydroxy-pyridin-2-yl)-benzamide], the inhibition at 1 µM under setting [3] was 4.44%. `COc1ccc(C(=O)Nc2ccc(O)cn2)cc1` [Example 26, N-(5-hydroxy-pyridin-2-yl)-4-methoxy-benzamide]: under setting [3], the inhibition at 1 µM came to 74.5%. Further, the IC50 under setting [2] was determined as 0.24 µM. Take `CC(C)c1ccc(C(=O)Nc2ccc(O)cn2)cc1` [Example 27, N-(5-hydroxy-pyridin-2-yl)-4-isopropyl-benzamide]: the IC50 under setting [2] came to 0.016 µM. Take `O=C(Nc1ccc(O)cn1)[C@H]1CC[C@H](c2ccccc2)CC1` [Example 28, (1r,4r)-N-(5-hydroxy-pyridin-2-yl)-4-phenyl-cyclohexane-1-carboxamide]: the inhibition at 1 µM under setting [3] stood at 96.2%. The IC50 under setting [2] stood at 0.005 µM.

`CCCCCCCC(=O)Nc1ccc(O)cn1` [Example 29, N-(5-hydroxy-pyridin-2-yl)-octanamide]: under setting [3], the inhibition at 1 µM is 95.7%. Further, the 50% inhibitory concentration (IC50) under setting [2] is 0.006 µM.

For the compound `O=C(Nc1ccc(O)cn1)C1CCCCC1` [Example 30, N-(5-hydroxy-pyridin-2-yl)-cyclohexane-carboxamide], the inhibition at 0.5 µM under setting [4] is 49.5%. Take `CC(C)CCCCCC(=O)Nc1ccc(O)cn1` [Example 31, N-(5-hydroxy-pyridin-2-yl)-7-methyloctan-amide]: the IC50 under setting [2] is 0.001 µM. Moreover, the inhibition at 0.5 µM (Jurkat) was 91%. The matching figures for `O=C(Nc1ccc(O)cn1)[C@H]1CC[C@H](c2ccc(Cl)cc2)CC1` [Example 32, (1r,4r)-4-(4-chlorophenyl)-N-(5-hydroxy-pyridin-2-yl)-cyclohexane-1-carboxamide]: 0.001 µM and 96.8%. On to `O=C(Nc1ccc(O)cn1)c1ccc(-c2ccccn2)cc1` [Example 33, N-(5-hydroxy-pyridin-2-yl)-4-(pyridin-2-yl)benzamide], for which the inhibition at 0.5 µM under setting [4] was 71.1%. Same read-out and setting: then `O=C(Nc1ccc(O)cn1)c1ccc(-c2cccnc2)cc1` [Example 34, N-(5-hydroxy-pyridin-2-yl)-4-(pyridin-3-yl)benzamide], with 85.6%. Take `CC(C)(C)c1ccc(C(=O)Nc2ccc(O)cn2)cc1` [Example 35, 4-(tert-butyl)-N-(5-hydroxy-pyridin-2-yl)-benzamide]: under setting [4], the inhibition at 0.5 µM is 90%. For the same compound, the inhibition at 1 µM under setting [3] amounted to 95.7%. The IC50 under setting [2] was determined as 0.004 µM. In the case of `COCCCCCC(=O)Nc1ccc(O)cn1` [Example 36, N-(5-hydroxy-pyridin-2-yl)-6-methoxy-hexanamide], the inhibition at 0.5 µM under setting [4] is 44.8%. As for `CC(C)OCCCCC(=O)Nc1ccc(O)cn1` [Example 37, N-(5-hydroxy-pyridin-2-yl)-5-isopropoxy-pentanamide], the inhibition at 0.5 µM under setting [4] came out at 93.7%. Also, under setting [2], the IC50 amounted to 0.021 µM.

(Values after patent US11135207B2, “Inhibitors of dihydroceramide desaturase for treating disease” (Centaurus Therapeutics, priority 2016, dated 2021).)
